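Assay format: 96-well plates, 48-hour exposure. Here, GI50 denotes the concentration required for 50% inhibition of growth.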 The source made the active and inactive calls. No stated cut-off is given here; in the data, active = GI50 up to about 1.1 µM and inactive = higher.
Tests used:
Assay in all cases: DTP human tumour cell line panel, 48 h
786-0 = system: 786-0
A498 = system: A498
A549 = system: A549
ACHN = system: ACHN
BT-549 = system: BT-549
CAKI-1 = system: CAKI-1
CCRF-CEM = system: CCRF-CEM
COLO 205 = system: COLO 205
DU-145 = system: DU-145
EKVX = system: EKVX
HCC 2998 = system: HCC 2998
HCT-116 = system: HCT-116
HCT-15 = system: HCT-15
HL-60 = system: HL-60
HOP-62 = system: HOP-62
HOP-92 = system: HOP-92
HT-29 = system: HT-29
Hs-578T = system: Hs-578T
IGROV-1 = system: IGROV-1
K562 = system: K562
KM12 = system: KM12
LOX IMVI = system: LOX IMVI
M14 = system: M14
MCF7 = system: MCF7
MDA-MB-231 = system: MDA-MB-231
MDA-MB-435 = system: MDA-MB-435
MDA-N = system: MDA-N
MOLT-4 = system: MOLT-4
NCI-H226 = system: NCI-H226
NCI-H23 = system: NCI-H23
NCI-H460 = system: NCI-H460
NCI-H522 = system: NCI-H522
NCI/ADR-RES = system: NCI/ADR-RES
OVCAR-3 = system: OVCAR-3
OVCAR-4 = system: OVCAR-4
OVCAR-5 = system: OVCAR-5
OVCAR-8 = system: OVCAR-8
PC-3 = system: PC-3
RPMI-8226 = system: RPMI-8226
RXF 393 = system: RXF 393
SF-295 = system: SF-295
SF-539 = system: SF-539
SK-MEL-28 = system: SK-MEL-28
SK-MEL-2 = system: SK-MEL-2
SK-MEL-5 = system: SK-MEL-5
SK-OV-3 = system: SK-OV-3
SN12C = system: SN12C
SNB-19 = system: SNB-19
SNB-75 = system: SNB-75
SR = system: SR
SW-620 = system: SW-620
T47D = system: T47D
TK-10 = system: TK-10
U-251 = system: U-251
UACC-257 = system: UACC-257
UACC-62 = system: UACC-62
UO-31 = system: UO-31
Malme-3M = system: Malme-3M
SF-268 = system: SF-268

C/C=C(\C)C(=O)OC1C(C)=C2C(C1OC(=O)CCCC)C(C)(OC(C)=O)CC(OC(=O)CCCC)C1(O)C2OC(=O)C1(C)O (stereo not drawn)
GI50 (786-0): 0.982 µM (active) | GI50 (A498): 6.47 µM (inactive) | GI50 (A549): 1.03 µM (active) | GI50 (ACHN): 4.8 µM (inactive) | GI50 (BT-549): 8.71 µM (inactive) | GI50 (CAKI-1): 5.13 µM (inactive) | GI50 (CCRF-CEM): 1.74 µM (inactive) | GI50 (COLO 205): 0.891 µM (active) | GI50 (DU-145): 3.71 µM (inactive) | GI50 (EKVX): 8.22 µM (inactive) | GI50 (HCC 2998): 3.24 µM (inactive) | GI50 (HCT-116): 0.525 µM (active) | GI50 (HCT-15): 21 µM | GI50 (HL-60): 0.0324 µM (active) | GI50 (HOP-62): 0.431 µM (active) | GI50 (HOP-92): 0.746 µM (active) | GI50 (HT-29): 0.736 µM (active) | GI50 (Hs-578T): 0.625 µM (active) | GI50 (IGROV-1): 6.85 µM (inactive) | GI50 (K562): 2.2 µM (inactive) | GI50 (KM12): 0.776 µM (active) | GI50 (LOX IMVI): 0.439 µM (active) | GI50 (M14): 0.452 µM (active) | GI50 (MCF7): 0.394 µM (active) | GI50 (MDA-MB-231): 0.625 µM (active) | GI50 (MDA-MB-435): 0.501 µM (active) | GI50 (MDA-N): 0.437 µM (active) | GI50 (MOLT-4): 1.46 µM (inactive) | GI50 (NCI-H226): 1.19 µM (inactive) | GI50 (NCI-H23): 1.14 µM (inactive) | GI50 (NCI-H460): 0.792 µM (active) | GI50 (NCI-H522): 0.362 µM (active) | GI50 (NCI/ADR-RES): 36.9 µM (inactive) | GI50 (OVCAR-3): 0.925 µM (active) | GI50 (OVCAR-4): 1.86 µM (inactive) | GI50 (OVCAR-5): 2.21 µM (inactive) | GI50 (OVCAR-8): 4.43 µM (inactive) | GI50 (PC-3): 0.491 µM (active) | GI50 (RPMI-8226): 0.267 µM (active) | GI50 (RXF 393): 0.598 µM (active) | GI50 (SF-295): 0.802 µM (active) | GI50 (SF-539): 0.944 µM (active) | GI50 (SK-MEL-28): 0.893 µM (active) | GI50 (SK-MEL-2): 0.48 µM (active) | GI50 (SK-MEL-5): 1.73 µM (inactive) | GI50 (SK-OV-3): 4.11 µM (inactive) | GI50 (SN12C): 2.59 µM (inactive) | GI50 (SNB-19): 0.41 µM (active) | GI50 (SNB-75): 0.828 µM (active) | GI50 (SR): 0.951 µM (active) | GI50 (SW-620): 0.501 µM (active) | GI50 (T47D): 6.7 µM (inactive) | GI50 (TK-10): 13 µM (inactive) | GI50 (U-251): 0.605 µM (active) | GI50 (UACC-257): 9.46 µM (inactive) | GI50 (UACC-62): 1.57 µM (inactive) | GI50 (UO-31): 15.4 µM (inactive)

CS(=O)(=O)c1n[nH]c2nc(O)nc(O)c12
GI50 (786-0): > 10 µM (inactive) | GI50 (A498): > 10 µM (inactive) | GI50 (A549): > 10 µM (inactive) | GI50 (ACHN): > 10 µM (inactive) | GI50 (BT-549): > 10 µM (inactive) | GI50 (CAKI-1): > 10 µM (inactive) | GI50 (CCRF-CEM): > 10 µM (inactive) | GI50 (COLO 205): > 10 µM (inactive) | GI50 (DU-145): > 10 µM (inactive) | GI50 (EKVX): > 10 µM (inactive) | GI50 (HCC 2998): > 10 µM (inactive) | GI50 (HCT-116): > 10 µM (inactive) | GI50 (HCT-15): > 10 µM | GI50 (HL-60): > 10 µM (inactive) | GI50 (HOP-62): > 10 µM (inactive) | GI50 (HOP-92): > 10 µM (inactive) | GI50 (HT-29): > 10 µM (inactive) | GI50 (Hs-578T): > 10 µM (inactive) | GI50 (IGROV-1): > 10 µM (inactive) | GI50 (KM12): > 10 µM (inactive) | GI50 (LOX IMVI): > 10 µM (inactive) | GI50 (M14): > 10 µM (inactive) | GI50 (MCF7): > 10 µM (inactive) | GI50 (MDA-MB-231): > 10 µM (inactive) | GI50 (MDA-MB-435): > 10 µM (inactive) | GI50 (MDA-N): > 10 µM (inactive) | GI50 (MOLT-4): > 10 µM (inactive) | GI50 (Malme-3M): > 10 µM (inactive) | GI50 (NCI-H226): > 10 µM (inactive) | GI50 (NCI-H23): > 10 µM (inactive) | GI50 (NCI-H460): > 10 µM (inactive) | GI50 (NCI-H522): > 10 µM (inactive) | GI50 (NCI/ADR-RES): > 10 µM (inactive) | GI50 (OVCAR-3): > 10 µM (inactive) | GI50 (OVCAR-4): > 10 µM (inactive) | GI50 (OVCAR-5): > 10 µM (inactive) | GI50 (OVCAR-8): > 10 µM (inactive) | GI50 (PC-3): > 10 µM (inactive) | GI50 (RXF 393): > 10 µM (inactive) | GI50 (SF-268): > 10 µM (inactive) | GI50 (SF-295): > 10 µM (inactive) | GI50 (SF-539): > 10 µM (inactive) | GI50 (SK-MEL-28): > 10 µM (inactive) | GI50 (SK-MEL-2): > 10 µM (inactive) | GI50 (SK-MEL-5): > 10 µM (inactive) | GI50 (SK-OV-3): > 10 µM (inactive) | GI50 (SN12C): > 10 µM (inactive) | GI50 (SNB-19): > 10 µM (inactive) | GI50 (SNB-75): > 10 µM (inactive) | GI50 (SR): > 10 µM (inactive) | GI50 (SW-620): > 10 µM (inactive) | GI50 (T47D): > 10 µM (inactive) | GI50 (TK-10): > 10 µM (inactive) | GI50 (U-251): > 10 µM (inactive) | GI50 (UACC-257): > 10 µM (inactive) | GI50 (UACC-62): > 10 µM (inactive)

— ChEMBL document CHEMBL1201862, “PubChem BioAssay data set” (2004)
